Experimental data taken from PMC12069643, “Structural insights into the selective recognition of RF-amide peptides by neuropeptide FF receptor 2” (EMBO Reports, 2025).

Assays:
Format in all cases: cell-based
[1] = biological target: T1, human NPFFR1 (Homo sapiens, UniProt Q9GZQ6); assay: GloSensor forskolin-stimulated cAMP assay, NPFFR1 wild-type; conditions: NPFFR1 wild-type, HEK293T, 0.5 μM forskolin, three independent experiments
T1 construct: expressed in transfected cells; host or cells: HEK293T (pcDNA3.1 NPFFR1)
T1 sequence (Q9GZQ6 whole entry): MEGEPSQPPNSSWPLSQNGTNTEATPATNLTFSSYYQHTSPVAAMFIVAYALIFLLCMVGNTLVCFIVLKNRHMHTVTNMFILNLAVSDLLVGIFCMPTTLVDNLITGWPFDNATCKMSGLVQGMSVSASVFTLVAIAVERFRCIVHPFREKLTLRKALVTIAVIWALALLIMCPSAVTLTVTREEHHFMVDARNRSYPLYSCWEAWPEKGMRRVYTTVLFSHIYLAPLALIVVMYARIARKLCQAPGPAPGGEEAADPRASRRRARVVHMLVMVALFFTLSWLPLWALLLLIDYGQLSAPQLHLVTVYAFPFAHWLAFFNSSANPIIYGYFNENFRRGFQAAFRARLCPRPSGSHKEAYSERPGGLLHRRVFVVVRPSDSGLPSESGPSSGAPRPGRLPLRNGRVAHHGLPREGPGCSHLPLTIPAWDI
Experimental: Figure 4 RF-amide ligand selectivity of NPFFR2 and NPFFR1. […] Key residues at the fifth and sixth positions from the C-terminus, are highlighted in bold. […] (B) The concentration-dependent response of various agonists on NPFFR1 was measured using a forskolin-stimulated cAMP assay. Data points represent the mean values from three independent experiments (each with technical triplicate), with error bars indicating SEM. Raw data were normalized to the vehicle-treated (0%) and 0.5 μM forskolin-treated (100%) responses. (C) Structural comparison between the binding modes of hNPSF to NPFFR2 and GnIH to NPFFR1. An AlphaFold2 prediction model of the GnIH–NPFFR1 complex was generated using the hNPSF–NPFFR2 complex structure as a template. The hydrophobicity of NPFFRs is shown with surface representation, where purple indicates hydrophilic regions and bronze indicates hydrophobic regions. […] (D) The cAMP response to the ligands hNPSF and GnIH was measured for both wild-type NPFFR1 and a mutant form of NPFFR1 using a forskolin-stimulated cAMP assay. […] Symbols represent mean values from three independent experiments, each conducted in technical triplicates, with error bars indicating SEM. Responses were normalized to vehicle-treated controls (0%) and 0.5 μM forskolin-treated controls (100%). Source data are available online for this figure.
(§1) HEK293T cells were seeded at a density of 6 × 10^5 cells per well in a six-well cell culture plate (SPL) and co-transfected with expression plasmids encoding GloSensor™ and each NPFFR construct, using 1 µg to 4 µg of DNA per well according to the Lipofectamine™ 2000 Transfection Reagent (Invitrogen) protocol. After 48 h of incubation under standard conditions (37 °C, 5% CO2), the cells were detached using Accutase solution (Sigma-Aldrich) and washed with PBS. The cells were then pelleted by centrifugation, resuspended in CO2-independent medium (Gibco) supplemented with Firefly D-Luciferin (0.5 mg/ml, NanoLight), and distributed into a 96-well white plate (SPL). After a 2-hour incubation, serially diluted ligands and 0.5 μM forskolin were added to each well to detect ligand-induced signaling. Luminescence signals were measured using a Mithras LB940 instrument (Berthold) with a measurement time of 1 s per well.
(§2) Data from the GloSensor^TM cAMP signaling assays were analyzed using GraphPad Prism with a three-parameter logistic model to fit concentration-response curves for both wild-type (WT) and mutant receptors. Mutant expression levels and DNA amounts were adjusted to match WT conditions. ΔpEC50 values were calculated by subtracting the log EC50 of the WT receptor from that of each mutant. Results are presented as mean ± SEM from three independent biological replicates, each performed in duplicate or more. Error bars represent the SEM. Statistical significance was assessed using one-way ANOVA, followed by Dunnett’s tests comparisons to the WT receptor. Significance levels were reported as follows: ns (not significant, P > 0.05); *P < 0.05; **P < 0.01; ***P < 0.001.

[2] = biological target: T2, NPFFR2 mutants (Homo sapiens, UniProt Q9Y5X5, E310A); assay: GloSensor forskolin-stimulated cAMP assay, NPFFR2 mutants; conditions: NPFFR2 E20845.52A, HEK293T, three independent experiments
T2 construct: expressed in transfected cells; host or cells: HEK293T (pcDNA3.1 NPFFR2 mutants)
T2 sequence (Q9Y5X5 103-522 E310A): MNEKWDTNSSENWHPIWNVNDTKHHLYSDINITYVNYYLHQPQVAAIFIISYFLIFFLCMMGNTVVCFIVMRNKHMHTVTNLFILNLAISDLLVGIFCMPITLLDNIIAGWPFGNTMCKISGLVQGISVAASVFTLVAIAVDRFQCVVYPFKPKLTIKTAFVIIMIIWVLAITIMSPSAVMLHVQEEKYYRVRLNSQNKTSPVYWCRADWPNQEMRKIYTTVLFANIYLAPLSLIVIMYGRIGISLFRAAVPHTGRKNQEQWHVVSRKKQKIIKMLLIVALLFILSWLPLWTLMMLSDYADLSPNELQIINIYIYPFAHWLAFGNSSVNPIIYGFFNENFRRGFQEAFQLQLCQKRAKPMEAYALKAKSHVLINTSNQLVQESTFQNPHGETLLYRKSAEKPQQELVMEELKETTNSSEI
Excerpt: (§3) Figure 2 Interaction of hNPSF with NPFFR2. (A) Residues participating in the interactions between hNPSF and NPFFR2 in the transmembrane (TM) binding pocket are shown as sticks. Dashed lines indicate polar interactions and hydrogen bonds between residues. Zoomed-in views highlighting interactions of the C-terminal segment (residues −1 to −4, PQRF), middle segment (residues −5 to −8, FLFQ), and the N-terminal segment (residues −9 to −11, SQA) of hNPSF are enclosed in red, blue, and yellow boxes, respectively. (B) NPFFR2 residues interacting with hNPSF were mutated to alanine, and the impact of each mutation on the EC50 value (ΔpEC50) was investigated using a forskolin-stimulated cAMP assay, after confirming surface expression of each mutant by an ELISA-based surface expression assay (Appendix Fig. S5). Three independent experiments (with technical triplicates) were conducted for each mutant. The bar graphs represent the mean of ΔpEC50 values from each experiment, with error bars indicating SEM. Statistical analyses were performed using ordinary one-way ANOVA followed by Dunnett’s test, comparing to the wild-type response. ns (not significant, P > 0.05); *P < 0.05; **P < 0.01; ***P < 0.001. Source data are available online for this figure.
as §1, §2
(§4) Appendix Figure S5. GloSensorTM cAMP assays of mutants and wild-type NPFFR2.
(§5) The dose-response of cAMP assay data for each mutant (red) presented in Fig. 2B are compared against the wild-type NPFFR2 (blue). Each experiment was conducted after adjusting the mutant's expression level to that of the wild-type NPFFR2 (Appendix Fig. S3), and pcDNA3.1 was used to match the total amount of DNA transfected. Data points represent mean values from three independent experiments (each with technical triplicate), with error bars indicating SEM. Raw data were normalized to the vehicle -treated (0%) and 0.5 μM forskolin-treated (100%) responses.
(§6) (% of forskolin stimulation) […]

[3] = biological target: T3, NPFFR2 mutants (Homo sapiens, UniProt Q9Y5X5, H421A); assay: as above; conditions: NPFFR2 H3197.39A, HEK293T, three independent experiments
T3 construct: expressed in transfected cells; host or cells: HEK293T (pcDNA3.1 NPFFR2 mutants)
T3 sequence (Q9Y5X5 103-522 H421A): as the sequence (Q9Y5X5 103-522 E310A) above, with A208E, H319A counted along it
Excerpt: as §3, §1, §2, §4, §5, §6

[4] = biological target: T4, NPFFR2 mutants (Homo sapiens, UniProt Q9Y5X5, I414S); assay: as above; conditions: NPFFR2 I3127.32S, HEK293T, three independent experiments
T4 construct: expressed in transfected cells; host or cells: HEK293T (pcDNA3.1 NPFFR2 mutants)
T4 sequence (Q9Y5X5 103-522 I414S): as the sequence (Q9Y5X5 103-522 E310A) above, with A208E, I312S counted along it
Excerpt: as §3, §1, §2, §4, §5, §6

[5] = biological target: T5, NPFFR2 mutants (Homo sapiens, UniProt Q9Y5X5, Q227A); assay: as above; conditions: NPFFR2 Q1253.32A, HEK293T, three independent experiments
T5 construct: expressed in transfected cells; host or cells: HEK293T (pcDNA3.1 NPFFR2 mutants)
T5 sequence (Q9Y5X5 103-522 Q227A): as the sequence (Q9Y5X5 103-522 E310A) above, with Q125A, A208E counted along it
Excerpt: as §3, §1, §2, §4, §5, §6

[6] = biological target: T6, NPFFR2 mutants (Homo sapiens, UniProt Q9Y5X5, T322A); assay: as above; conditions: NPFFR2 T2205.39A, HEK293T, three independent experiments
T6 construct: expressed in transfected cells; host or cells: HEK293T (pcDNA3.1 NPFFR2 mutants)
T6 sequence (Q9Y5X5 103-522 T322A): as the sequence (Q9Y5X5 103-522 E310A) above, with A208E, T220A counted along it
Excerpt: as §3, §1, §2, §4, §5, §6

[7] = biological target: T7, NPFFR2 mutants (Homo sapiens, UniProt Q9Y5X5, V231A); assay: as above; conditions: NPFFR2 V1293.36A, HEK293T, three independent experiments
T7 construct: expressed in transfected cells; host or cells: HEK293T (pcDNA3.1 NPFFR2 mutants)
T7 sequence (Q9Y5X5 103-522 V231A): as the sequence (Q9Y5X5 103-522 E310A) above, with V129A, A208E counted along it
Excerpt: as §3, §1, §2, §4, §5, §6

Emax ([1]; HEK-293T, read-out: Emax ± SEM): 83 ± 1%
EC50 ([1]; read-out: pEC50 ± SEM (converted)): 79.4 nM
Emax ([2]; HEK-293T): 29 ± 11%
EC50 [2]: 3980 nM
Emax ([3]; HEK-293T): 57 ± 2%
EC50 [3]: 63.1 nM
Emax ([4]; HEK-293T): 75 ± 3%
EC50 [4]: 31.6 nM
Emax ([5]; HEK-293T): 59 ± 4%
EC50 [5]: 1260 nM
Emax ([6]; HEK-293T): 70 ± 5%
EC50 [6]: 631 nM
Emax ([7]; HEK-293T): 79 ± 3%
EC50 [7]: 126 nM
SMILES: CC(C)C[C@H](NC(=O)[C@H](Cc1ccccc1)NC(=O)[C@H](C)NC(=O)[C@H](CCC(N)=O)NC(=O)[C@@H](N)CO)C(=O)N[C@@H](Cc1ccccc1)C(=O)N[C@@H](CCC(N)=O)C(=O)N1CCC[C@H]1C(=O)N[C@@H](CCC(N)=O)C(=O)N[C@@H](CCCNC(=N)N)C(=O)N[C@@H](Cc1ccccc1)C(N)=O [hNPSF]
